Source: patent US9133148B2, “Carbamate compounds and of making and using same” (Abide Therapeutics, Inc., priority 2012, dated 2015)

Columns and labels:
Format in all cases: biochemical
ABHD6 = ABHD6 (Mus musculus (Mouse), UniProt Q8R2Y0); test: Competitive ABPP, % inhibition at 1 uM, ABHD6
Method: (§1) In Vitro Competitive Activity-Based Protein Profiling.
(§2) Proteomes (mouse brain membrane fraction or cell lysates) ([…], 1.0 mg/mL total protein concentration) were preincubated with varying concentrations of inhibitors at 37° C. After 30 min, FP-Rh (1.0 μL, 50 μM in DMSO) was added and the mixture was incubated for another 30 min at 37° C. Reactions were quenched with SDS loading buffer (50 μL—4×) and run on SDS-PAGE.

MAGL = MAGL (Mus musculus (Mouse), UniProt O35678); test: Competitive ABPP, % inhibition at 1 uM, MAGL
Method: as §1, §2

FAAH = FAAH (Mus musculus (Mouse), UniProt O08914); test: Competitive ABPP, % inhibition at 1 uM, FAAH
Method: as §1
as §2, with “SDS-PAGE. Following gel imaging, serine hydrolase activity was determined by measuring fluorescent intensity of gel bands corresponding to MAGL, ABHD6 and FAAH using ImageJ 1.43u software.” for “SDS-PAGE.”

Chain of MAGL (O35678 whole entry): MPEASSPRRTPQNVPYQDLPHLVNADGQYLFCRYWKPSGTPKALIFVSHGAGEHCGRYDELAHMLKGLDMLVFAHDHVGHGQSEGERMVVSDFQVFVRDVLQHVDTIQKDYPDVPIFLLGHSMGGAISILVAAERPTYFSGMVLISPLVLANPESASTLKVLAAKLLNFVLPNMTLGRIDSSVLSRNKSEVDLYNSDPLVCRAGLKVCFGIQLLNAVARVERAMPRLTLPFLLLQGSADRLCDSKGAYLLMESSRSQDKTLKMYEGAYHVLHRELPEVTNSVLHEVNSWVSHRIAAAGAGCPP
Chain of ABHD6 (Q8R2Y0 whole entry): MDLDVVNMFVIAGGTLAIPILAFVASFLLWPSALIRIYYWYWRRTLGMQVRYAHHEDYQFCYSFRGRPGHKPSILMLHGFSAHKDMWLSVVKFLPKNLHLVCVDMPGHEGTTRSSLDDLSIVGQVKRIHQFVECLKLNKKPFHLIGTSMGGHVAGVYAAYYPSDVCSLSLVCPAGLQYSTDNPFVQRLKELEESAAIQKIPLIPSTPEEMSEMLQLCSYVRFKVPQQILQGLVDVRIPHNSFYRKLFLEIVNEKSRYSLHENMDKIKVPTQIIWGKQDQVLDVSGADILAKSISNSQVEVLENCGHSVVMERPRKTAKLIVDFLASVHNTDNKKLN
Chain of FAAH (O08914 whole entry): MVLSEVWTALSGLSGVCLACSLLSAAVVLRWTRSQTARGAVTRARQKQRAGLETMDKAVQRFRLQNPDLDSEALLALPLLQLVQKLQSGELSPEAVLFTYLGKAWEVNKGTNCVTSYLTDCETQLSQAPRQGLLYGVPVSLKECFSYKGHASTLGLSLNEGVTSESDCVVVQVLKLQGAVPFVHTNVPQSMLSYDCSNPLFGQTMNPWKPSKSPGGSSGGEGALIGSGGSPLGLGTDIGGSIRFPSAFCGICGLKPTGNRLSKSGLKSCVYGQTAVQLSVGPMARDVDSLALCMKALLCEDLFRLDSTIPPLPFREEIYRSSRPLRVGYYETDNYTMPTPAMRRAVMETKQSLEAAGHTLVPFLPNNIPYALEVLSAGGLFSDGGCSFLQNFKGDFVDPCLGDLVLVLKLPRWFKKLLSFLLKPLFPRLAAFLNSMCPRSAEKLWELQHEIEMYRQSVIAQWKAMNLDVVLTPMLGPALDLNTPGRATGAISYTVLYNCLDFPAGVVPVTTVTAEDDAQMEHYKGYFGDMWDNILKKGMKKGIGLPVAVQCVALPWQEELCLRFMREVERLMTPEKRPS

inhibition at 1 µM (ABHD6) | inhibition at 1 µM (MAGL) | inhibition at 1 µM (FAAH) | Structure (SMILES)
25 to 75% | > 75% | < 25% | O=C(OC(C(F)(F)F)C(F)(F)F)N1CCN(Cc2ccc(N3CCOCC3)cc2OC(F)(F)F)CC1 [Example 9ak, 1,1,1,3,3,3-hexafluoropropan-2-yl 4-[[4-(morpholin-4-yl)-2-(trifluoromethoxy)phenyl]methyl]piperazine-1-carboxylate]
25 to 75% | 25 to 75% | < 25% | C[C@H]1CN(Cc2ccc(N3CCOCC3)cc2Cl)CCN1C(=O)OC(C(F)(F)F)C(F)(F)F [Example 9al, 1,1,1,3,3,3-hexafluoropropan-2-yl(2S)-4-[[2-chloro-4-(morpholin-4-yl)phenyl]methyl]-2-methylpiperazine-1-carboxylate]
< 25% | 25 to 75% | < 25% | CC(C)c1cc(N2CCOCC2)ccc1CN1CCN(C(=O)OC(C(F)(F)F)C(F)(F)F)CC1 [Example 9bc, 1,1,1,3,3,3-hexafluoropropan-2-yl 4-[[4-(morpholin-4-yl)-2-(propan-2-yl)phenyl]methyl]piperazine-1-carboxylate]
< 25% | 25 to 75% | < 25% | O=C(OC(C(F)(F)F)C(F)(F)F)N1CCN(Cc2cccc(Cl)c2C(=O)N2CCOCC2)CC1 [Example 9bf, 1,1,1,3,3,3-hexafluoropropan-2-yl 4-(3-chloro-2-(morpholine-4-carbonyl)benzyl)piperazine-1-carboxylate]
25 to 75% | 25 to 75% | < 25% | C[C@H]1CN(Cc2ccc(N3CCOCC3)cc2F)CCN1C(=O)OC(C(F)(F)F)C(F)(F)F [Example 9i, 1,1,1,3,3,3-hexafluoropropan-2-yl(2S)-4-[[2-fluoro-4-(morpholin-4-yl)phenyl]methyl]-2-methylpiperazine-1-carboxylate]
25 to 75% | 25 to 75% | < 25% | C[C@H]1CN(Cc2ccc(N3CCOCC3)cc2C(F)(F)F)CCN1C(=O)OC(C(F)(F)F)C(F)(F)F [Example 9j, 1,1,1,3,3,3-hexafluoropropan-2-yl(2S)-2-methyl-4-[[4-(morpholin-4-yl)-2-(trifluoromethyl)phenyl]methyl]piperazine-1-carboxylate]
< 25% | < 25% | < 25% | C[C@@H]1CN(Cc2ccc(N3CCOCC3)cc2F)CCN1C(=O)OC(C(F)(F)F)C(F)(F)F [Example 9k, 1,1,1,3,3,3-hexafluoropropan-2-yl(2R)-4-[[2-fluoro-4-(morpholin-4-yl)phenyl]methyl]-2-methylpiperazine-1-carboxylate]
< 25% | < 25% | < 25% | C[C@@H]1CN(Cc2ccc(N3CCOCC3)cc2C(F)(F)F)CCN1C(=O)OC(C(F)(F)F)C(F)(F)F [Example 9l, 1,1,1,3,3,3-hexafluoropropan-2-yl(2R)-2-methyl-4-[[4-(morpholin-4-yl)-2-(trifluoromethyl)phenyl]methyl]piperazine-1-carboxylate]
25 to 75% | 25 to 75% | < 25% | CC1CN(C(=O)OC(C(F)(F)F)C(F)(F)F)CCN1Cc1ccc(-c2ccccc2)cc1 (stereo not drawn) [Example 11a, 1,1,1,3,3,3-hexafluoropropan-2-yl 3-methyl-4-[(4-phenylphenyl)methyl]piperazine-1-carboxylate]
25 to 75% | > 75% | < 25% | Cc1cc(-c2ccc(CN3CCN(C(=O)OC(C(F)(F)F)C(F)(F)F)CC3)c(F)c2)cc(C)n1 [Example 11aa, 1,1,1,3,3,3-hexafluoropropan-2-yl 4-[[4-(2,6-dimethylpyridin-4-yl)-2-fluorophenyl]methyl]piperazine-1-carboxylate]
25 to 75% | > 75% | < 25% | Cc1cccc(-c2ccc(CN3CCN(C(=O)OC(C(F)(F)F)C(F)(F)F)CC3)c(F)c2)n1 [Example 11ac, 1,1,1,3,3,3-hexafluoropropan-2-yl 4-[[2-fluoro-4-(6-methylpyridin-2-yl)phenyl]methyl]piperazine-1-carboxylate]
25 to 75% | 25 to 75% | < 25% | Cc1nc(-c2ccccc2F)ccc1CN1CCN(C(=O)OC(C(F)(F)F)C(F)(F)F)CC1 [Example 11c, 1,1,1,3,3,3-hexafluoropropan-2-yl 4-[[6-(2-fluorophenyl)-2-methylpyridin-3-yl]methyl]piperazine-1-carboxylate]
25 to 75% | > 75% | < 25% | Cc1cccc(-c2ccc(CN3CCN(C(=O)OC(C(F)(F)F)C(F)(F)F)CC3)c(C)n2)c1 [Example 11d, 1,1,1,3,3,3-hexafluoropropan-2-yl 4-[[2-methyl-6-(3-methylphenyl)pyridin-3-yl]methyl]piperazine-1-carboxylate]

Further lines, the compound ahead of its results:

Structure (SMILES) | inhibition at 1 µM (ABHD6) | inhibition at 1 µM (MAGL) | inhibition at 1 µM (FAAH)
O=C(OC(C(F)(F)F)C(F)(F)F)N1CCN(Cc2ccc(N3CCOCC3)cc2C(F)(F)F)CC1 [Example 9aj, 1,1,1,3,3,3-hexafluoropropan-2-yl 4-[[4-(morpholin-4-yl)-2-(trifluoromethyl)phenyl]methyl]piperazine-1-carboxylate] | 25 to 75% | 25 to 75% | < 25%
C[C@@H]1CN(Cc2ccc(N3CCOCC3)cc2Cl)CCN1C(=O)OC(C(F)(F)F)C(F)(F)F [Example 9am, 1,1,1,3,3,3-hexafluoropropan-2-yl(2R)-4-[[2-chloro-4-(morpholin-4-yl)phenyl]methyl]-2-methylpiperazine-1-carboxylate] | < 25% | < 25% | < 25%
CC(C)c1cc(-c2ccccc2)ccc1CN1CCN(C(=O)OC(C(F)(F)F)C(F)(F)F)CC1 [Example 9at, 1,1,1,3,3,3-hexafluoropropan-2-yl 4-((3-isopropyl-[1,1′-biphenyl]-4-yl)methyl)piperazine-1-carboxylate] | < 25% | 25 to 75% | < 25%
O=C(OC(C(F)(F)F)C(F)(F)F)N1CCN(Cc2ccc(C(=O)N3CCCC3)cc2Cl)CC1 [Example 9bd, 1,1,1,3,3,3-hexafluoropropan-2-yl 4-(2-chloro-4-(pyrrolidine-1-carbonyl)benzyl)piperazine-1-carboxylate] | 25 to 75% | 25 to 75% | < 25%
O=C(OC(C(F)(F)F)C(F)(F)F)N1CCN(Cc2c(Cl)cccc2N2CCCC2)CC1 [Example 9m, 1,1,1,3,3,3-hexafluoropropan-2-yl 4-[[2-chloro-6-(pyrrolidin-1-yl)phenyl]methyl]piperazine-1-carboxylate] | 25 to 75% | 25 to 75% | < 25%
COc1ccc(-c2cc(CN3CCN(C(=O)OC(C(F)(F)F)C(F)(F)F)CC3)no2)cc1 [Example 10a, 1,1,1,3,3,3-hexafluoropropan-2-yl 4-((5-(4-methoxyphenyl)isoxazol-3-yl)methyl)piperazine-1-carboxylate] | 25 to 75% | > 75% | < 25%
Cc1cnccc1-c1ccc(CN2CCN(C(=O)OC(C(F)(F)F)C(F)(F)F)CC2)c(F)c1 [Example 11ab, 1,1,1,3,3,3-hexafluoropropan-2-yl 4-[[2-fluoro-4-(3-methylpyridin-4-yl)phenyl]methyl]piperazine-1-carboxylate] | 25 to 75% | > 75% | < 25%
Cc1cccc(-c2ccc(CN3CCN(C(=O)OC(C(F)(F)F)C(F)(F)F)CC3)nc2C)c1 [Example 11ad, 1,1,1,3,3,3-hexafluoropropan-2-yl 4-[[6-methyl-5-(3-methylphenyl)pyridin-2-yl]methyl]piperazine-1-carboxylate] | 25 to 75% | > 75% | < 25%
Cc1ccccc1-c1ccc(CN2CCN(C(=O)OC(C(F)(F)F)C(F)(F)F)CC2)c(C)n1 [Example 11b, 1,1,1,3,3,3-hexafluoropropan-2-yl 4-[[2-methyl-6-(2-methylphenyl)pyridin-3-yl]methyl]piperazine-1-carboxylate] | 25 to 75% | > 75% | < 25%
Cc1nc(-c2cccc(F)c2)ccc1CN1CCN(C(=O)OC(C(F)(F)F)C(F)(F)F)CC1 [Example 11e, 1,1,1,3,3,3-hexafluoropropan-2-yl 4-[[6-(3-fluorophenyl)-2-methylpyridin-3-yl]methyl]piperazine-1-carboxylate] | 25 to 75% | > 75% | < 25%
Cc1cc(-c2ccc(CN3CCN(C(=O)OC(C(F)(F)F)C(F)(F)F)CC3)c(F)c2)ccn1 [Example 11g, 1,1,1,3,3,3-hexafluoropropan-2-yl 4-[[2-fluoro-4-(2-methylpyridin-4-yl)phenyl]methyl]piperazine-1-carboxylate] | > 75% | > 75% | < 25%
Cc1cccc(-c2ccc(CN3CCN(C(=O)OC(C(F)(F)F)C(F)(F)F)CC3)c(C)c2)c1 [Example 11h, 1,1,1,3,3,3-hexafluoropropan-2-yl 4-[[2-methyl-4-(3-methylphenyl)phenyl]methyl]piperazine-1-carboxylate] | < 25% | 25 to 75% | < 25%
